# Source: US7326721B2 (Hypnion, Inc., priority 2003, dated 2008)
# Like-named read-outs stand apart in the source and are kept apart here.
# Experiments:
# M2 muscarinic receptor = molecular target: T1, M2 muscarinic receptor (Homo sapiens, UniProt P08172); assay: Muscarinic M2 binding assay; parameters: purchased PerkinElmer, Inc., Wellesley, Mass; host or cells: CHO cells; conditions: for Ki: read-out: Ki M2
# T1 sequence (P08172 1-466): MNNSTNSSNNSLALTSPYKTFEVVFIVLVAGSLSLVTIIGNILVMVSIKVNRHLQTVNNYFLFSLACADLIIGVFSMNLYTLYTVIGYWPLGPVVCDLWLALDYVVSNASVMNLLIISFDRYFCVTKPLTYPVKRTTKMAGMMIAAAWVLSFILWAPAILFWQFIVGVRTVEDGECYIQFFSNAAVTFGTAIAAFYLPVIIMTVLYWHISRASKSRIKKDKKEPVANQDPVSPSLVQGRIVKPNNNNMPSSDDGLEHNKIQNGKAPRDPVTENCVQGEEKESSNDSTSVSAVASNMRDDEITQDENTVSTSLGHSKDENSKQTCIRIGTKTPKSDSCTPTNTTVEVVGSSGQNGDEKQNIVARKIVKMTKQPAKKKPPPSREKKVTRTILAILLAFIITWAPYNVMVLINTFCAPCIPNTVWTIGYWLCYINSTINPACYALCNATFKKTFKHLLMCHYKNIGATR
# adult male Wistar rats = assay: SCORE-2000 sleep-wakefulness, locomotor activity and body temperature monitoring; format: in vivo, rat
# hERG = hERG (Homo sapiens, UniProt Q12809)
# Chain of hERG (Q12809 whole entry): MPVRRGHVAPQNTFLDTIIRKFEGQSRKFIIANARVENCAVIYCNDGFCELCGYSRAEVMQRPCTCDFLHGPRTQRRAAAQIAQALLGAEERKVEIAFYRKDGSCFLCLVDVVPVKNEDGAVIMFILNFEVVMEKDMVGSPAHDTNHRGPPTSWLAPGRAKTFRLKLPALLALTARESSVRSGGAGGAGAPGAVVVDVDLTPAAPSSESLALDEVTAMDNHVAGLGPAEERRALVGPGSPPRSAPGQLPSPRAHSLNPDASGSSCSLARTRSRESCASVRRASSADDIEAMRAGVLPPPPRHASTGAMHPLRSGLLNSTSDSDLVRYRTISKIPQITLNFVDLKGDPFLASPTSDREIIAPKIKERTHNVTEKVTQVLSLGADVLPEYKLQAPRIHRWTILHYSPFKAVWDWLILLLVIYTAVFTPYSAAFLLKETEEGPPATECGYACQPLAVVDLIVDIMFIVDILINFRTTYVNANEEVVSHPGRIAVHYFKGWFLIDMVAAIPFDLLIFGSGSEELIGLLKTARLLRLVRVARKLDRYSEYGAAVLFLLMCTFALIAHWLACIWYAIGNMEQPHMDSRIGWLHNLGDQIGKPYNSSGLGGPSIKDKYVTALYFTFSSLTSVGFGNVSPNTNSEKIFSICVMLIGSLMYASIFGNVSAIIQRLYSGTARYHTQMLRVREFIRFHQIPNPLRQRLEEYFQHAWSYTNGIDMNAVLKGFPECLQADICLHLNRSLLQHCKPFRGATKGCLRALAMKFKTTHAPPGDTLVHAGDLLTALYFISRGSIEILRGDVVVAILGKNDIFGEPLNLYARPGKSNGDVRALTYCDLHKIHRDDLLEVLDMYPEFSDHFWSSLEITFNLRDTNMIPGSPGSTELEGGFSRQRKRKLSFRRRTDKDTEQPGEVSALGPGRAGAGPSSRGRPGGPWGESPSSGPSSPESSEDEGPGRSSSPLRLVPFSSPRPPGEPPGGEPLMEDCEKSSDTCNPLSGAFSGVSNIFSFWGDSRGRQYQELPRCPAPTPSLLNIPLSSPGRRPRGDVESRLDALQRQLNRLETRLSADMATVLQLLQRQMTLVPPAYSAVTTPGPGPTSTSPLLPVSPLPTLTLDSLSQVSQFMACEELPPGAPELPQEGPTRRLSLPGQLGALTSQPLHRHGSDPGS
# H1 histamine receptor = molecular target: T2, H1 histamine receptor (Bos taurus, UniProt P30546); assay: Histamine H1 competitive binding assay ([3H]pyrilamine); parameters: species or system bovine; conditions: read-out: Ki H1
# T2 construct: the receptors were obtained from bovine cerebellar membrane tissue; from tissue; host or cells: bovine cerebellar membranes
# T2 sequence (P30546 whole entry): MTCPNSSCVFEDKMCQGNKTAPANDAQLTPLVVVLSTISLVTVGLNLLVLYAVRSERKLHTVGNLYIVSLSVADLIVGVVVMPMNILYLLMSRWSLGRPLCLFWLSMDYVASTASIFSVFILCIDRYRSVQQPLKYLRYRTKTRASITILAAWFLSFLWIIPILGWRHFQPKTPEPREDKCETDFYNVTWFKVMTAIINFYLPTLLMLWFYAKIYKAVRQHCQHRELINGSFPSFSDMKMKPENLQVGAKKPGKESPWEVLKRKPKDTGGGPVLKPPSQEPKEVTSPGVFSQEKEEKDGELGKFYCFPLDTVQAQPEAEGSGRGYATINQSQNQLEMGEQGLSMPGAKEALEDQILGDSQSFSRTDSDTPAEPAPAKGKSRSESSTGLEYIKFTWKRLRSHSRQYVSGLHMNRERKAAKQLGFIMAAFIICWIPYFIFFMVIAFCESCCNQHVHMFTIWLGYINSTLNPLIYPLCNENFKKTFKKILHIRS
# M1 muscarinic receptor = molecular target: T3, M1 muscarinic receptor (Homo sapiens, UniProt P11229); assay: Muscarinic M1 binding assay ([3H]-scopolamine, N-methyl chloride); parameters: purchased PerkinElmer, Inc., Wellesley, Mass; host or cells: CHO cells; conditions: read-out: Ki M1
# T3 sequence (P11229 1-460): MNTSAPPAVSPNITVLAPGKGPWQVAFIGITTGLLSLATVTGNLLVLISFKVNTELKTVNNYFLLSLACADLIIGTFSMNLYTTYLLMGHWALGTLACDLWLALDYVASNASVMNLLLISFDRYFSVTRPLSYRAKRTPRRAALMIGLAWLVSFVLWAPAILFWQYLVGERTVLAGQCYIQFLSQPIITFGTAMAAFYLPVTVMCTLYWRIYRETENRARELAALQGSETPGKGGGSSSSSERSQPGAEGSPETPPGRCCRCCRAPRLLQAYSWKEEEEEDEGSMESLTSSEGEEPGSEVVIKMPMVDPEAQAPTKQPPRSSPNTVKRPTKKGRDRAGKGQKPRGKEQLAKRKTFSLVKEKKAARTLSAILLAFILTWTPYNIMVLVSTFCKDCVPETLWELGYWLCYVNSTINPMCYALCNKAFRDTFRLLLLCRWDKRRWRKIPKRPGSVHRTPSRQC
# M3 muscarinic receptor = M3 muscarinic receptor (Homo sapiens, UniProt P20309); assay: Muscarinic M3 binding assay; parameters: purchased PerkinElmer, Inc., Wellesley, Mass; host or cells: CHO cells; conditions: read-out: Ki M3
# Chain of M3 muscarinic receptor (P20309 whole entry): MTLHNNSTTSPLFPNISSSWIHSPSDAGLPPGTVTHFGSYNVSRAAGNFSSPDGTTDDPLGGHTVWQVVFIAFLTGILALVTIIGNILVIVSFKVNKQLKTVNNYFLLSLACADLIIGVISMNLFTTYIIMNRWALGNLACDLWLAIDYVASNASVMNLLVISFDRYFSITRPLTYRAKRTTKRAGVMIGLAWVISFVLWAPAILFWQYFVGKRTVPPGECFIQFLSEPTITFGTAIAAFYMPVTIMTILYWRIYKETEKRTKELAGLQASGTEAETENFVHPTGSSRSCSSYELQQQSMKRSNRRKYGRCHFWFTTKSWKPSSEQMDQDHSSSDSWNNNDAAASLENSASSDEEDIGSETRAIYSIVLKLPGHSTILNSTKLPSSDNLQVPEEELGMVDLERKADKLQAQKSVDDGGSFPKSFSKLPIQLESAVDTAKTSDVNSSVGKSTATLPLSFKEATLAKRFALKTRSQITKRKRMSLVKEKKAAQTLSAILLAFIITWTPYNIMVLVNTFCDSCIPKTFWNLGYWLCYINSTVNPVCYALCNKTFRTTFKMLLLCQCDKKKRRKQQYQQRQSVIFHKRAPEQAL
Structure (SMILES),LUSB (adult male Wistar rats; dose 30 mg/kg oral at CT-18) [min],NREM (adult male Wistar rats; dose 30 mg/kg oral at CT-18) [min],LUSB (adult male Wistar rats; dose 10 mg/kg oral at CT-18) [min],NREM (adult male Wistar rats; dose 10 mg/kg oral at CT-18) [min],LUSB (adult male Wistar rats; dose 3 mg/kg oral at CT-18) [min],NREM (adult male Wistar rats; dose 3 mg/kg oral at CT-18) [min],other results
"C[N+]1(C)C2CC(OC(=O)C(CO)c3ccccc3)CC1C1OC12.[Br-] (single isomer, unassigned; (-)) [(−)-scopolamine, MeBr, (−)-scopolamine, methyl-, bromide, reference compound]",–,–,–,–,–,–,Slope (M2 muscarinic receptor; M2 binding curve (Table 17)): −0.89
COc1ccc2c(c1)C(=C1CCN(CCC(C)(C)C(=O)O)CC1)c1ccccc1CO2 [Compound 67a],6.5,-11.5,–,–,–,–,–
O=C(O)C1(CCN2CCC(=C3c4ccccc4COc4ccc(O)cc43)CC2)CC1 [Compound 65b],–,–,3.9,-5.7,–,–,–
CC(C)(CCN1CCC(=C2c3ccc(Cl)cc3COc3ccccc32)CC1)C(=O)O [Compound 68a],11.9,50.8,7.8,45.9,4.3,20.9,hERG at micromolar (% blocking of the hERG channel) (hERG): 25.3% @ 10
CC(C)(CCN1CCC(=C2c3ccc(F)cc3COc3ccccc32)CC1)C(=O)O [Compound 61a],10.1,45.8,9.7,24,3.1,13.9,"Ki (H1 histamine receptor): 0.182 µM; hERG at micromolar (% blocking of the hERG channel) (hERG; human, 10 µM, pH 7.4): 12.6% @ 10; Ki (M1 muscarinic receptor): > 10 µM; Ki (M2 muscarinic receptor): > 10 µM; Ki (M3 muscarinic receptor): > 10 µM"
COc1ccc2c(c1)C(=C1CCN(CC(C)(C)C(=O)O)CC1)c1ccccc1CO2 [Compound 52a],10.1,37.2,5.7,26.8,8.2,13.6,–
CC(C)(CCN1CCC(=C2c3ccccc3COc3ccc(O)cc32)CC1)C(=O)O [Compound 65a],–,–,1.5,6.2,–,–,–
COc1ccc2c(c1)C(=C1CCN(CCC3(C(=O)O)CC3)CC1)c1ccccc1CO2 [Compound 67b],10,21.1,4.6,12.6,–,–,Ki (H1 histamine receptor): 0.0625 µM; Ki (M1 muscarinic receptor): > 10 µM; Ki (M2 muscarinic receptor): > 10 µM; Ki (M3 muscarinic receptor): > 10 µM
COc1ccc2c(c1)COc1ccccc1C2=C1CCN(CC2(C(=O)O)CC2)CC1 [Compound 50b],14.3,51.9,8.1,24.2,6.9,10.7,"Ki (H1 histamine receptor): 0.0698 µM; hERG at micromolar (% blocking of the hERG channel) (hERG; human, 10 µM, pH 7.4): 27.1% @ 10; Ki (M1 muscarinic receptor): > 10 µM; Ki (M2 muscarinic receptor): > 10 µM; Ki (M3 muscarinic receptor): > 10 µM"
Cc1ccc2c(c1)COc1ccccc1C2=C1CCN(CC(C)(C)C(=O)O)CC1 [Compound 57a],-5.3,-11,–,–,–,–,–
CC(C)(CN1CCC(=C2c3ccccc3COc3ccccc32)CC1)C(=O)O [Compound 69a],13.5,40,13.1,32.8,7.1,32.2,"hERG at micromolar (% blocking of the hERG channel) (hERG; human, 1 µM, pH 7.4): 6.1% @ 1"
O=C(O)C1(CN2CCC(=C3c4ccc(O)cc4COc4ccccc43)CC2)CC1 [Compound 56b],-2.9,-9.9,–,–,–,–,–
CC(C)(CN1CCC(=C2c3ccccc3COc3ccc(O)cc32)CC1)C(=O)O [Compound 55a],2,12.8,–,–,–,–,–
CC(C)(CCN1CCC(=C2c3ccc(O)cc3COc3ccccc32)CC1)C(=O)O [Compound 63a],4.6,9.6,–,–,–,–,–
COc1ccc2c(c1)C(=C1CCN(CC(C)(C)C(=O)O)CC1)c1ccc(F)cc1CO2 [Compound 46a],–,–,8.2,36,5,12.1,Ki (H1 histamine receptor): 0.134 µM; Ki (M1 muscarinic receptor): > 10 µM; Ki (M2 muscarinic receptor): 2.45 µM; Ki (M3 muscarinic receptor): > 10 µM
